Measured values as given in ChEMBL document CHEMBL1921691, “Synthesis and growth regulatory activity of a prototype member of a new family of aminothiol radioprotectors” (Bioorg Med Chem Lett, 2011).
Activity calls are given as the source filed them. No cut-off for these calls is given here.

Each molecule was assayed on Rattus norvegicus (assay: Protection against 17.33 Gy radiation induced-dermatitis in rat compound administered topically 4 times in 2 hrs prior irradiation measured after 13 days). Details: not given.
Assay type: functional, organism-based

SMILES | Activity
CNCC(CS)CNC | Active

Organism: Homo sapiens
Experiment: Antiproliferative activity against log phase culture of human fibroblasts assessed as growth inhibition after 4 days
Assay type: functional
Details: Fibroblast

SMILES | growth inhibition (GI)
CCNCCCCNCCCCNCCCCNC/C=C(/CS)CNCCCCNCCCCNCCCCNCC | Active
CCNCCCCNCCCCNCCCCNCCCCNC/C=C(/CS)CNCCCCNCCCCNCCCCNCCCCNCC | Active
CCNCCCCNC/C=C(/CS)CNCCCCNCC | Active
CNCC(CS)CNC | Active
CCNCCCCNCCCCNC/C=C(/CS)CNCCCCNCCCCNCC | Active
